Molecules are shown by their SMILES.

A word on the IC50: it is the concentration at which inhibition is half-maximal. Read a low IC50 as greater potency in that assay.

In one assay the test system is rats.
Assay: not given
The settings on record: exogenous administration; cited from earlier work.
Take `COc1ccc2[nH]cc(CCNC(C)=O)c2c1` [melatonin, N-acetyl-5-methoxytryptamine]: the “effect on circadian rhythms” value is on record as “found to synchronize circadian rhythms in rats”.

The target of another assay is T1, human melatonin receptor (human ML1A) (Homo sapiens, UniProt P48039).
T1 construct: expressed in transfected cells; host or cells: COS-1 cells (transient, pcDNAI, DEAE-dextran); membrane homogenates
T1 sequence (P48039 whole entry): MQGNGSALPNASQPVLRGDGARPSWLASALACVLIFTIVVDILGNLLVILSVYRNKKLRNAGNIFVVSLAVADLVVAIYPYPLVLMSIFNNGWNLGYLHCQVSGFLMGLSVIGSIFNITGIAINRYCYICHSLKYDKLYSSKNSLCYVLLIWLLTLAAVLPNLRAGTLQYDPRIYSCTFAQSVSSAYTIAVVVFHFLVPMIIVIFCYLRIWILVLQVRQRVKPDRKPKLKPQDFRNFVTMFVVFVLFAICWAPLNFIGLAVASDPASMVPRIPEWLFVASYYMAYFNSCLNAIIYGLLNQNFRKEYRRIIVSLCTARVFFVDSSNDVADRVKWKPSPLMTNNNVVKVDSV
The assay can be described thus: Melatonergic binding: displacement of 2-[125I]-iodomelatonin at the human melatonin receptor (human ML1A in COS-1 membranes). The settings on record: Table 5; displacement of 2[125I]-Iodomelatonin (100 pM), 37° C., 1 hour. The procedure: The melatonergic binding of the compounds of Formula I was determined by a modification of the method of Reppert, S. M. et al. (Neuron, Volume 13, pages 1177-1185, 1994). […] The reagents, membranes, and other parameters used in the assay are described below:
(a) 50 mM Tris buffer containing 12.5 mM MgCl2, and 2 mM EDTA (pH 7.4 at 37° C.).
(b) Wash buffer: 20 mM Tris base containing 2 mM MgCl2 (pH 7.4 at room temperature).
(c) 6-Chloromelatonin (10^-5 M final concentration).
(d) 2-[^125 I]-Iodomelatonin (100 pM final concentration). (Source: NEN) Membrane preparation: The cDNA (human ML1A) in pcDNAI was introduced into COS-1 cells by the DEAE-dextran method. Three days later, after media removal, the plates were washed with buffered saline; the cells removed using Hank's balanced salt solution and pelleted. The supernant was discarded and the pellets frozen. For membrane homogenates, the pellets were thawed and resuspended in TME buffer, Tris base, MgCl2, EDTA (pH 7.4 at 37° C.), and supplemented with aprotinin, leupeptin, and phenylmethylsulfonyl fluoride. The cells were homogenized and centrifuged; the resulting pellet resuspended in TME and frozen. At assay, the small aliquot was thawed on ice and resuspended in TME buffer. Incubation: 37° C. for 1 hour. Reaction is terminated by filtration.
As for `CCCC(=O)NC[C@@H]1C[C@H]1c1cccc(OCCc2cccc(C(F)(F)F)c2)c1` (relative stereo) [Example 123, (trans)-N-[[2-[3-[2-[3-(Trifluoromethyl)phenyl]ethoxy]phenyl]cycloprop-1-yl]methyl] butanamide], the half-maximal inhibitory concentration (IC50) was below 5 nM.
As for `CCCC(=O)NC[C@@H]1C[C@H]1c1cccc(OCCc2cccc(F)c2)c1` (relative stereo) [Example 125, (trans)-N-[[2-[3-[2-(3-Fluorophenyl)ethoxy]phenyl]cycloprop-1-yl]methyl] butanamide], the half-maximal inhibitory concentration (IC50) is 5 to 40 nM.
`CCCC(=O)NC[C@@H]1C[C@H]1c1cccc(OCCCc2ccc(OC)cc2)c1` (relative stereo) [Example 127, (trans)-N-[[2-[3-[3-(4-Methoxyphenyl)propoxy]phenyl]cycloprop-1-yl]methyl]butanamide] yielded an IC50 of 5 to 40 nM.
The molecule `CCCC(=O)NC[C@@H]1C[C@H]1c1cccc(OCCc2ccccc2F)c1` (relative stereo) [Example 128, (trans)-N-[[2-[3-[2-(2-Fluorophenyl)ethoxy]phenyl]cycloprop-1-yl]methyl] butanamide] showed an IC50 of 5 to 40 nM.
`CC(C)C(=O)NC[C@@H]1C[C@H]1c1cccc(F)c1` (single isomer, unassigned) [Example 65, (-)-(trans)-N-[[2-(3-Fluorophenyl)cycloprop-1-yl]methyl]-2-methylpropanamide]: the IC50 fell in the range of 250 to 600 nM.
In turn, `CCCC(=O)NC[C@@H]1C[C@H]1c1cccc(OCCCc2cccc(OC)c2)c1` (single isomer, unassigned) [Example 84, (-)-(trans)-N-[[2-[3-[3-(3-Methoxyphenyl)propoxy]phenyl]cycloprop-1-yl)methyl] butanamide] displayed an IC50 below 5 nM.
The same measure, in the same setting: the result for `CCCC(=O)NC[C@@H]1C[C@H]1c1ccccc1` (single isomer, unassigned) [Example 90, (-)-(trans)-N-[(2-Phenylcycloprop-1-yl)methyl] butanamide] reads 40 to 250 nM.
On the same count and under the same terms, in the case of `CCCC(=O)NC[C@@H]1C[C@H]1c1cc(OCCCc2cccc(OC)c2)ccc1I` (single isomer, unassigned) [Example 93, (-)-(trans)-N-[[2-[2-Iodo-5-[3-(3-methoxyphenyl)propoxy]phenyl]cycloprop-1-yl)methyl] butanamide] it was 5 to 40 nM.

The assay is the same for the next values; noted with them: Table 6; displacement of 2[125I]-Iodomelatonin (100 pM), 37° C., 1 hour.
Take `COc1cccc([C@H]2[C@H](CNC(=O)C(C)C)C2(F)F)c1` (relative stereo) [Example 134, (trans)-N-[[3-(3-Methoxyphenyl)-2,2-difluoro--cycloprop-1-yl]methyl]-2-methylpropanamide]: the concentration for half-maximal inhibition (IC50) fell in the range of 40 to 250 nM.
Turning to `CCCC(=O)NCC[C@@H]1C[C@H]1c1cccc(OC)c1` (single isomer, unassigned) [Example 16, (-)-(trans)-N-[[2-(3-Methoxyphenyl)cyclopropyl]ethyl]butanamide], the 50% inhibitory concentration (IC50) was in the range of 250 to 600 nM.

These data come from patent US5753709A, “N-acyl-2 aryl cyclopropylmethylamine derivatives as melatonergics” (Bristol-Myers Squibb Company, priority 1996, dated 1998).
